Laboratory results as given in article PMC9166766 (Experimental & Molecular Medicine, 2022).
No end group written: not given here.

Columns and labels:
[1] = tested on: Jurkat T cells (T-cell activation gene mRNA); assay: Real-time quantitative PCR of activated Jurkat T cells; format: cell-based; conditions: PMA and ionomycin; for NINJ1 and ZP4 expression upon T-cell activation: Supplementary Fig. 5a, b
Text: We collected Jurkat T cells with QIAzol Lysis Reagent (Qiagen) to extract total RNA. We reverse transcribed cDNAs from isolated RNA using AMV Reverse Transcriptase and random hexamers. We performed real-time quantitative PCR for each cDNA using TB Green® Premix Ex Taq™ (TaKaRa, Kusatsu, Japan) on a CFX Connect Real-time PCR Detection System (Bio-Rad, Hercules, CA, USA) and normalized the expression to that of 18 S rRNA or GAPDH.
The experiment was independently repeated at least three times, and the data are presented as the mean ± standard deviation. Statistical differences were determined using two-tailed Student’s t-test. *p < 0.05, **p < 0.01, ***p < 0.001, NC negative control.

[2] = tested on: calcineurin (CNA) phosphatase activity; assay: Calcineurin cellular activity assay in Jurkat T cells; format: cell-based; conditions: HA-mCherry-tagged peptides, PMA and ionomycin
Procedure: We measured calcineurin phosphatase activity in vitro using a calcineurin phosphatase assay kit (BML-AK804, Enzo Life Sciences, Farmingdale, NY, USA). We incubated GST or GST-tagged peptides with CNA for 30 min at room temperature and then followed the manufacturer’s instructions. To measure endogenous calcineurin phosphatase activity, we transiently transfected Jurkat T cells with CAG-HA-mCherry-peptides by electroporation. After 24 h, we pretreated the Jurkat T cells with FK506 for 1 h before activating them with PMA and ionomycin. Next, we washed the cells with TBS buffer (20 mM Tris, pH 7.2, 150 mM NaCl), resuspended them with lysis buffer from the calcineurin cellular activity assay kit (BML-AK816, Enzo Life Sciences), and kept them on ice for 30 min. We collected the lysate supernatant and removed free phosphate by gel filtration using the Desalting Column Resin included in the kit. Next, we followed the manufacturer’s instructions.
Jurkat T cells expressing only HA-mCherry were used as a negative control, and cells treated with FK506 were used as a positive control. d In vitro calcineurin phosphatase activity assays using purified GST-tagged peptides. Purified GST was used as a negative control. […] Statistical differences were determined using one-way ANOVA. *p < 0.05, NS nonsignificant, NC negative control.

Compound: CABIN1-L-1-2: 10 amino acids from proline 2146 to proline 2155 of full-length CABIN1; expressed GST-, GAL4 DBD- or HA-mCherry-tagged (PEITVTPPTP; also: expressed GST-, GAL4 DBD- or HA-mCherry-tagged, end not given here)
- NINJ1 and ZP4 expression upon T-cell activation [1]: unaffected
- RNA levels of T-cell activation genes (qRT-PCR) vs VIVIT peptide ([1]; at least three repeats): reduced the RNA levels of these genes more efficiently than the VIVIT peptide
- calcineurin phosphatase activity in cells [2]: did not

Compound: C=CC[C@@H]1/C=C(\C)C[C@H](C)C[C@H](OC)[C@H]2O[C@@](O)(C(=O)C(=O)N3CCCC[C@H]3C(=O)O[C@H](/C(C)=C/[C@@H]3CC[C@@H](O)[C@H](OC)C3)[C@H](C)[C@@H](O)CC1=O)[C@H](C)C[C@@H]2OC [FK506, reference compound]
- NINJ1 and ZP4 expression upon T-cell activation [1]: repressed
- calcineurin phosphatase activity in cells [2]: decreased the phosphatase activity of CNA
